Experimental data published in article PMC4667271, “Discovery of a Novel Inhibitor of the Protein Tyrosine Phosphatase Shp2” (Scientific Reports, 2015).

What was measured:
[1] = tested on: Gab1-Shp2 association in MDA-MB-231 cells; assay: Gab1-Shp2 co-immunoprecipitation, MDA-MB-231; type: cell-based, human; conditions: Fumos alone
Procedure: Cells were washed with cold PBS twice and lysed in cell lysis buffer for 10 min on ice. Then the lytic cells were centrifugated with 13,000 g for 10 min at 4 °C. The supernatant was transferred to a fresh conical centrifuge tube on ice and added 1 μg of the appropriate control IgG, together with 20 μl of resuspended volume of Protein A/G PLUS-Agarose (Santa Cruz Biotechnology, CA), then incubated at 4 °C for 30 min. The pellet beads were centrifugated at 1,000 g for 5 min at 4 °C. The supernatant with approximately 100–500 μg total cellular protein was incubated with 2 μg primary antibody against Shp2 or Gab1 for 7 h at 4 °C. Then lysates containing protein-antibody complexes were incubated with 20 μl of Protein A/G PLUS-Agarose at 4 °C on a rotating device overnight. Immunoprecipitates were collected by centrifugation at 2,500 rpm and washed for 4 times with 1 ml lysis buffer, then suspended in the loading buffer, boiled, and analyzed by SDS-PAGE.
Figure S1. Fumos inhibits Gab1-Shp2 association in MDA-MB-231 cells.
MDA-MB-231 cells were serum-starved for 18 h, preincubated with or without Fumos (20 μM 24 h), and then treated with EGF (20 ng/ml, 5 min). Shp2 was immunoprecipitated from cell lysate supernatants. Immunoprecipitates were analyzed by immunoblotting with antibodies to Gab1, pY and Shp2.
(§1) (1 picture or pasted object on this page, not shown here)

[2] = tested on: ERK1/2 activation in HEK293T cells expressing H-RasV12; assay: RasV12-induced ERK1/2 activation in transfected HEK293T; type: cell-based, human; conditions: Fumos 20 μM or U0126 10 μM, 24 h
Procedure: DMSO treatment as control. […] (c) Fumos inhibits EGF-induced Ras activation.
(§2) HEK293T, MDA-MB-231and HeLa cell lines were obtained from CRC/PUMC. Cell lines were maintained in Dulbecco’s modified Eagle’s medium supplemented with 10% fetal bovine serum. Transfections were performed in 6-well plates according to manufacturer (Invitrogen Lipofectamine LTX).Briefly, for transient transfection of HEK293T cells, subconfluent cells in 6-well plates were incubated with 2 ml of Dulbecco’s modified Eagle’s medium containing 2.5 μg of total DNA and 7.5 μl of each Lipofectamine and Plus reagent (Invitrogen) and then serum-starved in DMEM/0.1% bovine serum albumin for 18 h. After Fumos treatment for 24 h, cells were stimulated for 5 min with 20 ng/ml EGF.
After centrifugation, the supernatant was collected.

[3] = molecular target: PTPRA (Homo sapiens, UniProt P18433); assay: biochemical
Procedure: (§3) Plasmids for expression of His-tag fusion proteins of human PTP were constructed in PET-28a by PCR subcloning techniques. The constructions contain only the PTP domain except Full-length Shp2. Full-length Shp2 containing Tyr279-to-Ala mutant was generated by PCR-based mutagenesis. All constructs were verified by DNA sequencing. PTP-His fusion proteins were expressed in Escherichia coli BL21 and lysed in the buffer (50 mM NaH2PO4, 300 mM NaCl, 250 mM imidazole, 1 mM dithiothreitol plus 5% glycerol), purified with Ni-NTA Magnetic Agarose Beads (Qiagen). The His-tag recombinant purification protocol was carried out according to the purification under native conditions of the QIAexpress System.
(§4) The assay was set in wells of 96-well plate with a final volume of 100 μl of reaction mixture containing 10 mM of NaAc-HAc, 1 mM of ethylene diamine tetraacetic acid, 1 mM of DL-dithiothreitol and 2% of dimethyl sulfoxide, pH 5.5. Activity of the enzyme was assayed by incubating recombinant PTP protein or mutant PTP with various concentrations of Fumos in the mixture at 37 °C for 30 min. Absorbance at 405 nm was detected immediately after addition of varied concentrations of substrate, p-nitrophenyl phosphate (pNPP) to each corresponding well.

[4] = molecular target: STEP (Homo sapiens, UniProt P54829); assay: biochemical
Procedure: as §3, §4

[5] = tested on: ERK1/2 activation in transfected HEK293T cells; assay: ERK activity after Shp2 or PTP1B overexpression in HEK293T; type: cell-based, human; conditions: 20 μM Fumos 24 h
Procedure: as §2
Figure S2. Fumos inhibits Shp2-mediated ERK1/2 activation in human cells. […]
vectors for PTP1B and Shp2, and either untreated or treated with 20 μM Fumos for 24 h, respectively. Total cell lysates were immunoblotted with antibodies specific for […]
as §1

[6] = tested on: EGF-induced Ras activation in HeLa cells; assay: Ras activation assay (GST-RBD pull-down), HeLa; type: cell-based, human; conditions: Fumos 20 μM
Procedure: (§5) Active Ras was detected by use of the RBD of raf-1 fused to glutathione S-transferase (GST) as described previously. Cells were lysed in MLB buffer (25 mM Hepes, 150 mM NaCl, 1% Nonidet P-40, 0.25% sodium deoxycholate, 10% glycerol, 25 mM NaF, 1 mM Na3VO4, 10 mM MgCl2, 1 mM EDTA, pH 7.5) supplemented with complete EDTA-free protease inhibitor mixture. Total 500 μg cell lysate was incubated with 10–20 μg of GST-RBD bound beads(Merck) overnight at 4 °C. The beads were pelleted by centrifugation and washed three times with MLB buffer. The beads were boiled in SDS loading buffer and subjected to electrophoresis, followed by immunoblotting with an anti-Ras antibody (Santa Cruz Biotechnology).

[7] = tested on: EGF-induced Ras activation in HEK293T cells; assay: Ras activation assay (GST-RBD pull-down), HEK293T; type: cell-based, human; conditions: Fumos 20 μM
Procedure: as §5

[8] = molecular target: T1, Shp2 PTP domain (Homo sapiens, UniProt Q06124); assay: in vitro PTP assay (pNPP), Shp2 PTP domain; type: biochemical
T1 sequence (Q06124 247-517 limits assumed): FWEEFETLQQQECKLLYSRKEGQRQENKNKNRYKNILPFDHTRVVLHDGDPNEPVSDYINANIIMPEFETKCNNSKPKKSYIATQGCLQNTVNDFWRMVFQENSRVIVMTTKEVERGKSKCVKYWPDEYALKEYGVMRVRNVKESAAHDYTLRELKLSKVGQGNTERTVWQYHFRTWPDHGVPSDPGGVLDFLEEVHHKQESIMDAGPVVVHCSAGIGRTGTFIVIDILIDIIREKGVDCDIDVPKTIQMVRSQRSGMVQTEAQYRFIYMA
Procedure: as §3, §4

STEP, sequence (P54829 300-555 limits assumed): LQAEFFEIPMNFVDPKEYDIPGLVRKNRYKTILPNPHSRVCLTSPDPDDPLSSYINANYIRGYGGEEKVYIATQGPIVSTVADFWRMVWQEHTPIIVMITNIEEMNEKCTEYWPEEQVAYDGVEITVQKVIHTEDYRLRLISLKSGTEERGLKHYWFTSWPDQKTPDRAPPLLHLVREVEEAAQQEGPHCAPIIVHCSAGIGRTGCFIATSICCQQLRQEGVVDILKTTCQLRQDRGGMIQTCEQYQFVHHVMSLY
PTPRA, sequence (P18433 241-501 limits assumed): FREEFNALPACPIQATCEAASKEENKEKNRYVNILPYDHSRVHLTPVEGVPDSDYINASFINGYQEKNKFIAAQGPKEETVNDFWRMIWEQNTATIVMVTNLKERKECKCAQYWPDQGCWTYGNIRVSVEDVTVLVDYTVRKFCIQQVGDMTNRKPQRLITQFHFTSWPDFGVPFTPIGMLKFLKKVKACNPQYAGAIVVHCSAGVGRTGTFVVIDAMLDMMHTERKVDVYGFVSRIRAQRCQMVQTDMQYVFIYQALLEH

CC[C@@H](C)C[C@@H](C)/C=C(C)/C=C/C=C/C=C(\C)C(=O)c1c(O)c(-c2ccc(O)cc2)cn(O)c1=O [Fumos, Fumosorinone]
Gab1-Shp2 association without EGF [1]: induces Gab1-Shp2 association | RasV12-induced ERK1/2 activation [2]: did not inhibit | IC50 ([3]; PTPRA PTP domain): > 100 µM | IC50 selective ([3]; PTPRA relative to Shp2 PTP domain): >16 | IC50 ([4]; STEP PTP domain): > 100 µM | IC50 selective ([4]; STEP relative to Shp2 PTP domain): >16 | ERK activity after Fumos treatment in cells transfected with PTP1B [5]: little recovery | ERK activity after Fumos treatment in cells transfected with Shp2 [5]: partially recovered | EGF-induced endogenous Ras activation [6]: inhibited | EGF-induced endogenous Ras activation [7]: inhibited | IC50 [8]: 6.31 ± 0.52 µM | IC50 selective ([8]; Shp2 relative to Shp2 PTP domain): 1
